Experimental data as given in US20190300851A1, “HUMAN STEM CELL DERIVED ENDOTHELIAL CELLS, ENDOTHELIAL-HEPATOCYTE CO-CULTURE SYSTEM AND USES THEREOF” (AGENCY FOR SCIENCE, TECHNOLOGY AND RESEARCH, priority 2016, published 2019).
Entries after “also recorded” stand apart in the source; their conditions may differ. Where two headings read alike, the source gives them in different places.

Assays:
[1] = system: NFκB; test: hPSC-HEP conditioned media on IL-1β-stimulated hPSC-ECs: NFκB nuclear translocation; format: cell-based, human; settings: hPSC-HEP conditioned media (10 μM, 48 hour) on IL-1β-stimulated hPSC-ECs
Description: (§1) HPSC-HEPs (1.25×10^5 cells/cm^2) were cultured for 48 hour in 1:1 William's E medium+EGM-2 without serum containing 10 μM Quercetin or 10 μM Genistein. Conditioned media from hPSC-HEPs treated with quercetin or genistein were collected, and added to hPSC-ECs (that were serum starved overnight) along with 20 ng/ml of IL-13 for determination of NFκB nuclear colocalization (at 1 hour), gene expression profile of inflammatory markers (at 6 hour), and IL-8 protein levels (1 day) upon inflammation.
(§2) Cells were fixed with 4% paraformaldehyde (Nacalai Tesque, cat. no. 09154-14) and permeabilized by 0.5% Triton X-100 (Acros Organics, cat. no. 215680010) in PBS with Ca^2+ and MG^2+ at room temperature. Blocking was performed using PBS with 10% serum overnight at 4° C. Cells were incubated with the respective primary antibody diluted in 0.1% serum containing PBS for 1 hour and secondary antibodies in 0.1% serum containing PBS for another hour. Washes were performed twice using 0.1% serum containing PBS. DAPI (1 μg/ml, Thermo, cat. no. D3571) was used to stain the cell nucleus for 10 min.

[2] = system: co-culture of hPSC-ECs and hPSC-HEPs; test: LC-MS metabolite profile in co-cultured media of hPSC-ECs and hPSC-HEPs; format: in vitro ADME, human
Description: (§3) H9-ESCs were used to generate the ECs and hepatocytes for co-culture experiments and assays with nutraceuticals. Both cell types were derived from an isogenic source of hPSC to ensure a robust endothelial-hepatic model without confounding phenotypic differences due to genetic variations. The IBIDI μ-slide 2×9 wells were used for creating the co-culture setup. Each minor well was first coated with Collagen I and then a total of 2.5×10^5 hPSC-ECs and hPSC-HEPs were seeded in individual wells in a 1:1 ratio within a major well to allow equivalent contribution of paracrine factors between the two cell types (FIG. 5A). After cell attachment, the media was changed to 1:1 William's E and EGM-2 without serum, to be commonly shared by hPSC-ECs and hPSC-HEPs in a major well. Upon overnight serum starvation, the co-cultures were pre-conditioned with 10 μM of Quercetin or Genistein for 48 hours prior to IL-1β stimulation.
(§4) The metabolic potential of the hPSC-HEPs and primary rat hepatocytes (freshly isolated according to our previously established protocol) were tested by exposing them to nutraceuticals quercetin and genistein (10 μM) over different durations. Internal standard (Emodin, 10 ng/ml) was added to the conditioned media. The SPE column (Phenomenex, Strata C18-E, 55 μm, 70 Å) was conditioned by washing with 1 ml methanol and then 2 ml DI water. […]

[3] = system: IL-1β-stimulated hPSC-ECs; test: Inflammatory marker gene expression (qPCR) in IL-1β-stimulated hPSC-ECs, monoculture; format: cell-based; settings: for gene expression of inflammatory markers versus IL-1β stimulated levels: 10 μM, up to 72 hours, IL-1β-stimulated hPSC-ECs, monoculture
Description: (§5) After the hPSC colonies attached, they were first induced to drive early mesoderm differentiation for 36 hours, using a chemically defined media, supplemented with human recombinant FGF2 (20 ng/ml, R&D Systems, cat. no. 233-FB), LY294002 (10 μM, Sigma, cat. no. L9908), and human recombinant BMP4 (10 ng/ml, R&D Systems, cat. no. 314-BP). Lateral plate mesoderm was further induced for another 3.5 days in media supplemented with human recombinant FGF2 (20 ng/ml) and BMP4 (50 ng/ml), with media change every 2 days. On day 5, the lateral plate mesoderm population was trypsinized using TrypLE Express (Gibco, cat. no. 12604) and plated on matrigel-coated plates in the same basal media supplemented with FGF2 (4 ng/ml), SB431542 (10 μM, Sigma, cat. no. S4317) and VEGF (50 ng/ml, R&D Systems, cat. no. 293-VE) with media change every 2-3 days. On day 10, PECAM1-expressing endothelial cells were sorted using fluorescence-activated cell sorting with PECAM1 antibody (Biolegend, cat. no. 303110). The PECAM1+ cells were plated at a density of 5×10^4/cm^2 onto collagen I-coated plate in commercial media EGM-2 (Lonza, cat. no. CC-3162). For every 500 ml EGM-2 media used, the following supplements are included: human epidermal growth factor (0.5 ml); VEGF, 0.5 ml; R3-insulin growth factor-1, 0.5 ml; Ascorbic acid, 0.5 ml; Hydrocortisone, 0.2 ml; hFibroblast growth factor-beta, 2.0 ml; FBS, 10.0 ml; Gentamicin Amphotericin, 0.5 ml. hPSC-ECs were passaged using TrypLE Express when they reached more than 75% confluency. Fresh complete EGM-2 media were replaced every 2-3 days. All experiments were performed on cells up to passage 10. hPSC-ECs derived from three different cell lines, H9-ESCs (FIGS. 1-5), IMR90-iPSCs and BJ-iPSCs (FIGS. 7-8), were functionally characterized and used in inflammatory activation assays. In EC marker and functional characterization, human coronary artery ECs (HCAECs) were used as positive control, while HeLa cells and human hepatocellular carcinoma cells (HUH7) were used as negative controls.
Total RNA was prepared using RNeasy mini kit (Qiagen, cat. no. 74104). Each RNA sample (250 ng) was reverse transcribed into cDNA using Maxima First Strand cDNA Synthesis kit (Thermo, cat. no. K1641). qPCR was performed on a StepOnePlus Real-Time PCR system (Thermo) using FAST SYBR green master mix (Thermo, cat. no. 4385616). Expression levels were normalized to the housekeeping gene glyceraldehyde 3-phosphate dehydrogenase (GAPDH).

[4] = system: hPSC-HEP conditioned media treated on hPSC-ECs; test: LC-MS metabolite profile in hPSC-HEP conditioned media treated on hPSC-ECs; format: in vitro ADME, human; settings: conditioned media setting
Description: as §1
as §4, with “water. Conditioned media was added into the column and 1.5 mL 30% methanol was added to elute the impurity such as phenol red in the medium. 0.1% Formic acid methanol was added to the column to elute all the metabolites and internal standard out to a 15 mL tube. Liquid in the 15 mL tube was dried under N2 in a sample concentrator with 30° C. heater.” for “water.”

[5] = system: NFκB; test: Endothelial-hepatocyte co-culture: NFκB nuclear translocation in IL-1β-stimulated hPSC-ECs; format: cell-based, human; settings: co-culture of hPSC-ECs with hPSC-HEPs, 10 μM for 48 hours prior to IL-1β stimulation
Description: as §3
Cells were fixed with 4% paraformaldehyde (Nacalai Tesque, cat. no. 09154-14) and permeabilized by 0.5% Triton X-100 (Acros Organics, cat. no. 215680010) in PBS with Ca^2+ and MG^2+ at room temperature. Blocking was performed using PBS with 10% serum overnight at 4° C. Cells were incubated with the respective primary antibody diluted in 0.1% serum containing PBS for 1 hour and secondary antibodies in 0.1% serum containing PBS for another hour. […]

[6] = system: primary rat hepatocytes; test: LC-MS metabolic profile of nutraceuticals by primary rat hepatocytes; format: in vitro ADME; settings: 10 μM
Description: The metabolic potential of the hPSC-HEPs and primary rat hepatocytes (freshly isolated according to our previously established protocol) were tested by exposing them to nutraceuticals quercetin and genistein (10 μM) over different durations. Internal standard (Emodin, 10 ng/ml) was added to the conditioned media. The SPE column (Phenomenex, Strata C18-E, 55 μm, 70 Å) was conditioned by washing with 1 ml methanol and then 2 ml DI water. Conditioned media was added into the column and 1.5 mL 30% methanol was added to elute the impurity such as phenol red in the medium. 0.1% Formic acid methanol was added to the column to elute all the metabolites and internal standard out to a 15 mL tube. Liquid in the 15 mL tube was dried under N2 in a sample concentrator with 30° C. heater. After drying the sample, 100 μL of 0.1% formic acid methanol was added to the 15 mL tube and vortex for 30 s and transfer to another 1.5 mL tube. The samples were then centrifuged at 13,000 rpm for 10 min at 4° C. and 10 μl of the supernatant was injected into LC-MS. High performance liquid chromatography combined with electrospray ionization ion trap time-of-flight multistage mass spectrometry (HPLC-DAD-ESI-ITTOF-MSn) analyses were performed with a Shimadzu LCMS-IT-TOF instrument, which was composed of two LC-20AD pumps, an SIL-20AC autosampler, a CTO-20A column oven, a CBM-20A system controller, an ESI ion source, and an IT-TOF mass spectrometer (Shimadzu, Kyoto, Japan).

[7] = cited from earlier work
[8] = system: hPSC-HEPs; test: LC-MS metabolic profile of nutraceuticals by hPSC-HEPs; format: in vitro ADME, human; settings: 10 μM
Description: (§6) Hepatocytes were generated from hPSCs by a growth factor-based differentiation protocol described in our previous protocol. After 20 days of differentiation, the cells were harvested using a serial 2× TrypLE Express treatment and further dissociated into single cells by passing them through a 40 μm cell strainer. These single cells were then seeded at 2.5×10^5 cells per well in a Collagen I (50 μg/ml, Biolaboratories, Cat. No.: 354236)-coated dishes. Attachment and recovery were promoted by seeding them in step IV differentiation medium with Hepatocyte growth factor (R&D, Cat. No.: 294-HGN-005), Follistatin (R&D, Cat. No.: FS-288), Oncostatin (R&D, Cat. No.: 295-OM-010) and Y-27632 (Rock Inhibitor) to prevent anoikis in the freshly harvested hPSC-HEPs. Next day, media was changed to Williams E medium (Sigma, Cat. No.: W1878) without serum and cells were serum starved overnight prior to nutraceutical treatments. Nutraceuticals quercetin (Sigma, Cat. No.: Q4951) and genistein (Sigma, Cat. No.: G6649) were administered at a single dose of 10 μM. Hepatocytes in this work were derived from H9-ESCs. In hepatic characterization, primary human hepatocytes (PHH) and HUH7 cells were used as positive controls, while HeLa cells were used as negative control.
as §4, with “water. Conditioned media was added into the column and 1.5 mL 30% methanol was added to elute the impurity such as phenol red in the medium. 0.1% Formic acid methanol was added to the column to elute all the metabolites and internal standard out to a 15 mL tube. Liquid in the 15 mL tube was dried under N2 in a sample concentrator with 30° C. heater.” for “water.”

[9] = system: IL-8; test: IL-8 ELISA of conditioned media of IL-1β-stimulated hPSC-ECs, monoculture; format: cell-based, human; settings: for IL-8 protein levels from conditioned media: 10 μM, 48 hours, IL-1β-stimulated hPSC-ECs, monoculture
Description: as §5
(§7) Conditioned EGM-2 media were collected, and concentration of human IL-8 was determined using the human IL-8 ELISA kit (Invitrogen, cat. no. KHC0081) according to manufacturer's instructions.

[10] = system: IL-1β-stimulated hPSC-HEPs; test: Inflammatory marker gene expression (qPCR) in IL-1β-stimulated hPSC-HEPs; format: cell-based, human; settings: 10 μM, 48 hours
Description: as §6
Total RNA was prepared using RNeasy mini kit (Qiagen, cat. no. 74104). […]

[11] = system: IL-8; test: Endothelial-hepatocyte co-culture: IL-8 protein; format: cell-based, human; settings: co-culture of hPSC-ECs with hPSC-HEPs, 10 μM for 48 hours prior to IL-1β stimulation
Description: as §3, §7

[12] = system: IL-8; test: IL-8 ELISA of conditioned media of IL-1β-stimulated hPSC-HEPs; format: cell-based, human; settings: 10 μM, 48 hours
Description: as §6, with “In hepatic characterization, primary human hepatocytes (PHH) and HUH7 cells were used as positive controls, while HeLa cells were used as negative control.” left out
as §7

[13] = system: NFκB; test: NFκB nuclear translocation (immunostaining) in IL-1β-stimulated hPSC-ECs, monoculture; format: cell-based, human; settings: for NFκB nuclear translocation levels: 10 μM, IL-1β-stimulated hPSC-ECs, monoculture
Description: as §5, §2

[14] = higher concentrations; cited from earlier work
[15] = system: hPSC-ECs; test: LC-MS metabolic profile of nutraceuticals by hPSC-ECs; format: in vitro ADME, human; settings: hPSC-EC conditioned media
[16] = BJ-ECs and IMR90-ECs, IL-1β stimulation

Compound | NFκB nuclear translocation [1] | gene expression of inflammatory markers versus IL-1β stimulated levels [3] | NFκB nuclear translocation (colocalization) [5] | plasma concentrations [7] [µM] | IL-8 protein levels from conditioned media [9] | inflammatory gene (marker) expression [10] | IL-8 protein levels / secretion [11] | production of IL-8 protein from conditioned media [12] | NFκB nuclear translocation levels [13] | also measured
O=c1c(-c2ccc(O)cc2)coc2cc(O)cc(O)c12 [genistein] | did not seem to inhibit | did not show substantial reduction | significant suppression; also recorded: significantly decreased | 0.03 to 16.34 | no significant reduction | significant reduction; also recorded: decreased most of the inflammatory marker expression | remarkably decreased; also recorded: significantly reduced | significantly suppressed | remained elevated | metabolites detectable in medium ([2]; endothelial-hepatic co-culture, LC-MS): detectable levels of various metabolites; metabolites detectable in medium [4]: but not in the conditioned media setting; level of parent nutraceutical over time ([6]; freshly isolated primary rat hepatocytes, LC-MS): declined over time; formation of metabolites ([6]; primary rat hepatocytes, LC-MS): giving rise to metabolites; levels of metabolites over time ([8]; hPSC-HEPs, LC-MS): increased over time; also recorded: increased with time; also recorded: giving rise to metabolites; level of parent nutraceutical over time ([8]; in the presence of hPSC-HEPs, LC-MS): gradually declined over time
O=c1c(O)c(-c2ccc(O)c(O)c2)oc2cc(O)cc(O)c12 [quercetin] | did not seem to inhibit | did not show substantial reduction | significant suppression; also recorded: significantly decreased | 0.3 to 3.5 | no significant reduction | significant reduction; also recorded: decreased most of the inflammatory marker expression | remarkably decreased; also recorded: significantly reduced | significantly suppressed | remained elevated | metabolites detectable in medium [2]: detectable levels of various metabolites; safety and tolerability [14]: safe and well tolerated; time of treatment by which substantial metabolites had emerged ([6]; rat): ≤ 6 h; bioavailability in human plasma ([7]; human plasma): very low; optimal duration of conversion into metabolites (most metabolites peaked) ([8]; human): 48 h; level of parent nutraceutical over time [15]: decrease over time
IL-1β: human recombinant inflammatory cytokine, interleukin-1 beta, used to stimulate inflammation [reference compound] |  |  |  |  |  |  |  |  |  | expression of inflammatory genes [3, 16]: up-regulation; expression of inflammatory genes versus unstimulated ([3]; H9-derived hPSC-ECs, human recombinant IL-1β 20 ng/ml, 6 hours): significant up-regulation; IL-8 production [9, 16]: elevated; production of IL-8 from conditioned media versus unstimulated cells ([9]; H9-derived hPSC-ECs, IL-1β-stimulated): significantly higher; NFκB nuclear translocation [13, 16]: increase; nuclear translocation of NFκB ([13]; H9-derived hPSC-ECs, IL-1β 20 ng/ml, 1 hour): evident
